In one experiment the target is T1, IP6K2^L206V (Homo sapiens, UniProt Q9UHH9, L206V).
T1 construct: made in house; host or cells: E. coli Arctic Express
T1 sequence (Q9UHH9 1-426 L206V): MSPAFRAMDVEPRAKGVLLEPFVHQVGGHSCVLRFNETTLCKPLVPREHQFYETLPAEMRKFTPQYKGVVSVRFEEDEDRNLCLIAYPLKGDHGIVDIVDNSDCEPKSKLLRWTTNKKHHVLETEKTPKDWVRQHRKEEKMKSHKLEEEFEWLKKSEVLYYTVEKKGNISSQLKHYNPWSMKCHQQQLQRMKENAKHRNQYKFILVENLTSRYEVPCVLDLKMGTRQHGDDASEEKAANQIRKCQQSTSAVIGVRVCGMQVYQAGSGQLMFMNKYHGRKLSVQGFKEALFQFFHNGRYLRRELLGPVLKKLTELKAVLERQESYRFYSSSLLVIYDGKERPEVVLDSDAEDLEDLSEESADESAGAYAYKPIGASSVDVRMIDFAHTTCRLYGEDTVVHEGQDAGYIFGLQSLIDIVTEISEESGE
Description: NMR activity assay, [13C6]-InsP6 to 5PP-InsP5. In kind it is biochemical. The protocol: (§1) The NMR assay for IP6K activity was performed similarly as described before ([Harmel et al., 2019]) with slight alterations. Enzyme assays were performed in D2O in a total volume of 150 µl containing 20 mM 4-(2-hydroxyethyl)-1-piperazineethanesulfonic acid (HEPES) pH* 6.8, 50 mM NaCl, 6 mM MgCl2, 1 mM ATP, 0.2 mg/ml BSA, 1 mM DTT, 5 mM creatine phosphate and 1 U/ml creatine kinase (ATP-regenerating system) and 50 nM kinase if not otherwise stated. HEPES, NaCl, and BSA were prepared as buffer A and DTT and creatine phosphate as buffer B in D2O and were adjusted to pH* 6.8, respectively. If applicable, inhibitor was added as a DMSO-d6 stock in a twofold dilution series at a final DMSO concentration of 1% if not otherwise mentioned. Otherwise, DMSO-d6 was added to the same percentage. The samples were equilibrated at 37°C for 3 min and the reaction initiated by adding 100 µM [^13C6]-InsP6.

A further experiment deals with T2, IP6K2^wt (Homo sapiens, UniProt Q9UHH9).
T2 construct: made in house; host or cells: E. coli Arctic Express
T2 sequence (Q9UHH9 1-426): T1 sequence (Q9UHH9 1-426 L206V) with V206L
Put plainly: NMR activity assay, [13C6]-InsP6 to 5PP-InsP5. In kind it is biochemical. The protocol: as §1

The next experiment concerns the target T3, MBP-HsIP6K1^L210V (Homo sapiens, UniProt Q92551, L210V).
T3 construct: made in house; host or cells: E. coli Arctic Express
Put plainly: Hydrogen deuterium exchange mass spectrometry (HDX-MS), apo vs inhibitor-bound. In kind it is binding. Particulars: IP6K1^L210V apo vs bound to FMP-201300. The protocol:
(§2) Prior to initiation of deuterium exchange reactions, enzymes were incubated with inhibitor or DMSO blank for 15 min at RT (final concentration: 3 µM enzyme, 50 µM inhibitor, in a buffer consisting of 20 mM HEPES 7.4, 50 mM NaCl, 1% DMSO). From this mixture, 5 µl was taken per sample and 45 µl of deuterated buffer was added to initiate deuterium exchange (final concentrations: 300 nM enzyme, 5 µM inhibitor; final buffer concentration: 20 mM HEPES 7.4, 50 mM NaCl, 85.63% deuterium, 0.1% DMSO). Reactions were carried out in triplicate at 3 (3, 30, and 300 s) or four different time points (0.3, 3, 30, and 300 s) and were quenched by the addition of 20 µl of ice-cold quench buffer (final concentration: 0.57 M GuaHCL, 0.86% formic acid). Samples were snap-frozen in liquid nitrogen and then stored at −80°C until mass analysis.
(§3) Samples were rapidly thawed and injected onto an ultra-performance liquid chromatography (UPLC) at 2°C. […] Peptides were identified using data-dependent acquisition methods following tandem MS/MS experiments. MS/MS datasets were analyzed using MaxQuant against a database of purified proteins and known contaminants with an false discovery rate (FDR) cut-off of 1%.
(§4) Deuterium incorporation of peptides was automatically calculated using HDExaminer Software (Sierra Analytics). […]

A further experiment has as its target T4, MBP-HsIP6K1^wt (Homo sapiens, UniProt Q92551).
T4 construct: made in house; host or cells: E. coli Arctic Express
Described as above. In kind it is binding. Particulars: IP6K1^wt apo vs inhibitor-bound. The protocol: as §2, §3, §4

The target of the next experiment is T5, IP6K1^wt (Homo sapiens, UniProt Q92551).
T5 construct: made in house; host or cells: E. coli Arctic Express
T5 sequence (Q92551 whole entry): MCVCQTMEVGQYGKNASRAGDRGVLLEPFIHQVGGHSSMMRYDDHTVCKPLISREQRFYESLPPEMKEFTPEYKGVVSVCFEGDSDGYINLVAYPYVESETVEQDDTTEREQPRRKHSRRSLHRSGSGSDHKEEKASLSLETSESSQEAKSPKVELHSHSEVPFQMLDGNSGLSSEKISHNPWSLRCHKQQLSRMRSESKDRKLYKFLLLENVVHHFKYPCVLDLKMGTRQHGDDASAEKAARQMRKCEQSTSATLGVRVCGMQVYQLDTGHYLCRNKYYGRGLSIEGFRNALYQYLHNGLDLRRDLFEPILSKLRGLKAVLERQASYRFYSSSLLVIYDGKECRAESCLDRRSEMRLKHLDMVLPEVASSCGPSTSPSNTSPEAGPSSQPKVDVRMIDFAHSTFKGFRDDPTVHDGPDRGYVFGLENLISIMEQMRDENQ
Description: NMR activity assay, [13C6]-InsP6 to 5PP-InsP5, with ATP-regenerating system. In kind it is biochemical. Particulars: 1 mM ATP, ATP-regenerating system.
From the text: (§5) The gatekeeper mutants L210G and L210A of IP6K1 were generated by site-directed mutagenesis and the enzymes were recombinantly expressed, analogous to the WT kinase, as MBP-fusion proteins. To assess their catalytic activity, we used an NMR assay that harnesses fully ^13C-labeled InsP6 as a substrate and enables direct product readout of 5PP-InsP5 (Figure 2b and Figure 2—figure supplement 1; [Puschmann et al., 2019]; [Harmel et al., 2019]). […] Likewise, IP6K2 suffered a drastic decline in substrate turnover upon gatekeeper mutation to glycine (Figure 2—figure supplement 2).
as §1

The target of the next experiment is T6, IP6K1^L210V (Homo sapiens, UniProt Q92551, L210V).
T6 construct: made in house; host or cells: E. coli Arctic Express
T6 sequence (Q92551 whole entry L210V): as the sequence (Q92551 whole entry) above, with L210V counted along it
The description is as above. It is filed as biochemical.
From the text: as §5, §1

Positions count from the first letter of the chain named. Where two headings read alike, the source gives them in different places.

T3 sequence (Q92551 whole entry L210V): as the sequence (Q92551 whole entry) above, with L210V counted along it
T4 sequence (Q92551 whole entry): as the sequence (Q92551 whole entry) above

The term IC50 denotes the concentration that inhibits the measured activity by half. As for `O=C(O)c1ccc2c(c1)C(=O)N(c1ccc(-c3nc4ccc(N5C(=O)c6ccc(C(=O)O)cc6C5=O)cc4[nH]3)cc1)C2=O` [FMP-201300], the IC50 on IP6K2^L206V (NMR assay) is 186 nM; on IP6K2^wt, 2140 nM; on IP6K2^wt (Figure 4b), 2140 nM; against IP6K1^wt it was 810 nM; at IP6K1^L210V (100 μM InsP6) it was 75 nM; against IP6K1^L210V (500 μM InsP6), 87 nM. The same compound displayed an IC50 against IP6K1^L210V (NMR assay, 1 mM ATP, ATP-regenerating system) of 114 nM. In addition, at IP6K2^L206V (ratio of IC50 values), the “times more potent against IP6K2^L206V compared to IP6K2^wt” value amounted to 11. Moreover, the “change in deuterium exchange rates upon inhibitor binding” value at MBP-HsIP6K1^L210V was “Major decreases in exchange rates were observed in proximity to the ATP-binding site”. In addition, the “change in deuterium incorporation upon inhibitor binding” value at MBP-HsIP6K1^wt is reported as “no significant changes in deuterium incorporation were observed”. Moreover, the “difference in IC50 values measured at 100 and 500 µM InsP6” value at IP6K1^L210V (IP6K1^L210V) is “negligible”.

The values above are taken from PMC10578927, “An unconventional gatekeeper mutation sensitizes inositol hexakisphosphate kinases to an allosteric inhibitor” (eLife, 2023).
